Where “and” joins values, the source holds several entries; their conditions need not be identical. Equal entries are not always repeated.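 Dose response: 5 concentrations. Exposure: 48 h. Format: 96-well plates. Endpoint: linear interpolation; highest concentration if not reached. Here, GI50 denotes the concentration required for 50% inhibition of growth. Definition used: TGI = concentration required for complete inhibition of growth.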
What was measured:
Assay in all cases: DTP human tumour cell line panel, 48 h
SK-OV-3 ovarian = system: SK-OV-3 ovarian
SN12C renal = system: SN12C renal
RPMI-8226 leukemia = system: RPMI-8226 leukemia
U251 CNS = system: U251 CNS
ACHN renal = system: ACHN renal
CCRF-CEM leukemia = system: CCRF-CEM leukemia
IGROV1 ovarian = system: IGROV1 ovarian
HOP-62 NSCLC = system: HOP-62 NSCLC
UACC-257 melanoma = system: UACC-257 melanoma
OVCAR-3 ovarian = system: OVCAR-3 ovarian

Row | Compound | GI50 (SK-OV-3 ovarian) | TGI (SK-OV-3 ovarian) | GI50 (SN12C renal) | TGI (SN12C renal) | GI50 (RPMI-8226 leukemia) | TGI (RPMI-8226 leukemia) | GI50 (U251 CNS) | TGI (U251 CNS) | GI50 (ACHN renal) | TGI (ACHN renal) | GI50 (CCRF-CEM leukemia) | TGI (CCRF-CEM leukemia) | GI50 (IGROV1 ovarian) | TGI (IGROV1 ovarian) | GI50 (HOP-62 NSCLC) | TGI (HOP-62 NSCLC) | GI50 (UACC-257 melanoma) | TGI (UACC-257 melanoma) | TGI (OVCAR-3 ovarian) | GI50 (OVCAR-3 ovarian)
1 | COc1ccc(/C(COc2c(-c3ccccc3)oc3ccccc3c2=O)=N\O)cc1 | 16.9 µM | > 50 µM | 10.6 µM | 33.9 µM | 21.5 µM | > 50 µM | 18.9 µM | > 50 µM | 10.6 µM | 26.3 µM | 37 µM | > 50 µM | 22.9 µM | > 50 µM | 49.6 µM | > 50 µM | 17.8 µM | > 50 µM | – | –
2 | COc1ccc(-c2cc(=O)c3c(OC)c(OC)c(OC)cc3o2)cc1 | – | 88.2 µM | – | 91.1 µM | – | > 100 µM | – | > 100 µM | – | > 100 µM | – | 74 µM | – | > 100 µM | – | 59.8 µM | – | > 100 µM | 94.9 µM | –
3 | COc1cc2c(c(O)c1Br)C(=O)c1c(O)cc(C[C@H](C)O)cc1[C@H]2[C@H]1c2cc(C[C@H](C)O)cc(O)c2C(=O)c2c1cc(OC)c(Br)c2O | 11.6 µM and 24.3 µM | 47.1 µM and 89.8 µM | 2.25 µM and 3.64 µM | 67.5 µM and > 100 µM | 2.19 µM and 3 µM | 67.5 µM and 11.4 µM | 2.97 µM and 5.25 µM | 23.1 µM and 39.2 µM | 2.38 µM and 10.5 µM | 9.27 µM and 23.1 µM | 3.86 µM and 14.3 µM | 67.5 µM and 92.9 µM | 2.98 µM and 5.45 µM | 46.7 µM and 28.2 µM | 6.76 µM and 19.1 µM | 63.1 µM and 96 µM | 11.2 µM and 19.1 µM | 39.8 µM and 67.7 µM | 67.5 µM and > 100 µM | 15.3 µM and 31.1 µM
4 | CCN(CC)CCOc1ccc(/C(=C(\Cl)c2ccccc2)c2ccccc2)cc1 | 5.38 µM and 4.67 µM | 11.5 µM and 17.2 µM | 5.28 µM and 4.43 µM | 11.9 µM and 16.5 µM | 2.17 µM | 6.98 µM | 1.72 µM and 1.53 µM | 7.22 µM and 3.51 µM | 6.4 µM and 4.27 µM | 13.1 µM and 16.5 µM | – | – | 4.83 µM and 3.04 µM | 12.8 µM and 14.1 µM | 1.38 µM and 1.94 µM | 4.76 µM and 4.16 µM | 0.989 µM and 1.97 µM | 2.09 µM and 4.04 µM | 11.4 µM and 15.7 µM | 5.24 µM and 3.42 µM
5 | CC[CH2][Sn]([CH2]CC)([O]C(=O)c1cccnc1SC)[O][Sn]([CH2]CC)([CH2]CC)[O]C(=O)c1cccnc1SC | 1.53 µM | 3.61 µM | 0.453 µM | 1.39 µM | 0.139 µM | > 100 µM | 0.25 µM | 0.592 µM | 0.427 µM | 0.97 µM | 0.0691 µM | 0.756 µM | 1.26 µM | 3.79 µM | 2.32 µM | 5.31 µM | 0.594 µM | 1.72 µM | 1.85 µM | 0.583 µM
6 | CCc1ccc(/C=C\c2cc(OC)c(OC)c(OC)c2)cc1 | – | – | 0.0539 µM | – | 0.0373 µM | – | – | – | 0.0784 µM | 31.8 µM | 0.0274 µM | – | – | – | 0.0295 µM | 18.3 µM | 0.0802 µM | 72.1 µM | 0.206 µM | –
7 | CC/C(=C(/c1ccc(O)cc1)c1ccc(OCCNC)cc1)c1ccccc1 | 3.45 µM | 12 µM | 2.19 µM | 5.78 µM | 2.05 µM | 4.64 µM | 1.54 µM | 2.93 µM | 2.64 µM | 7.52 µM | 2.39 µM | 6.88 µM | 2.77 µM | 7.66 µM | 2.03 µM | 4.44 µM | 1.64 µM | 3.15 µM | 4.52 µM | 2.1 µM
8 | O=C(O)CNS(=O)(=O)c1ccc(NCc2ccccc2)cc1 | – | > 100 µM | – | > 100 µM | – | > 100 µM | – | > 100 µM | – | > 100 µM | – | > 100 µM | – | > 100 µM | – | > 100 µM | – | > 100 µM | – | –
9 | FC(F)(F)c1cccc(Nc2nccc(-c3cnn4nc(-c5ccccc5)ccc34)n2)c1 | > 22.6 µM | > 25 µM | > 13.5 µM | > 25 µM | 12.9 µM | > 25 µM | 4.58 µM | 10.1 µM | 6.71 µM | > 18 µM | > 17.9 µM | > 25 µM | 11.4 µM | > 25 µM | 8.1 µM | > 20.7 µM | 15.8 µM | > 25 µM | 11 µM | 5.24 µM
10 | O=C1Nc2c(C(F)(F)F)cccc2[C@]1(c1ccc(O)cc1)c1ccc(OC(F)(F)F)cc1 | 17.3 µM | 36.5 µM | 2.83 µM | 12.3 µM | 10.4 µM | 59.1 µM | 11.1 µM | 24.6 µM | 9.82 µM | 21.5 µM | 11.7 µM | 49.9 µM | 9.42 µM | 23.4 µM | 15.7 µM | 39.9 µM | 11.8 µM | 24.9 µM | 16.3 µM | 3.95 µM
11 | COc1cc(C2NC(=O)c3ccccc3N2)ccc1OCCCCCOc1c(OC)cc(C2=NOC(c3cc(OC)c(OC)c(OC)c3)C2)cc1OC (centres undefined) | 31.1 µM | > 100 µM | 31.3 µM | > 100 µM | 0.0754 µM | 1.1 µM | 19.6 µM | > 100 µM | 0.556 µM | > 100 µM | 0.627 µM | > 77.6 µM | 0.601 µM | > 71 µM | 17.3 µM | 61.3 µM | 0.296 µM | 69.9 µM | 44 µM | 12.6 µM
12 | CC(C)c1nc(CN(C)C(=O)N[C@H](C(=O)N[C@@H](Cc2ccccc2)C[C@H](O)[C@H](Cc2ccccc2)NC(=O)OCc2cncs2)C(C)C)cs1 | 35.8 µM | > 100 µM | 20.2 µM | 50.4 µM | 7.9 µM | 27.7 µM | 24.3 µM | 71.2 µM | 29.1 µM | 82.3 µM | 19.8 µM | 50.5 µM | 36.4 µM | > 100 µM | 19.6 µM | 38.2 µM | 18.4 µM | 38 µM | > 56.5 µM | 21.5 µM
13 | CC(=O)CNC(=O)OC(C)(C)C | – | > 100 µM | – | > 100 µM | – | – | – | > 100 µM | – | > 100 µM | – | > 100 µM | – | > 100 µM | – | > 100 µM | – | > 100 µM | > 100 µM | –

— PubChem BioAssay (NCI)
